Where a name gives a salt, the structure may show the parent alone. Read-outs that look alike come from different tables or passages of the source.
Assays:
Target C = assay: HiBiT protein abundance assay, Target C (K562 HiBiT knock-in); type: cell-based, human; settings: HiBiT knock-in K562 cells, 24 hours, top dose 10 μM
Procedure, shortened: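 K562 HiBiT knock-in cells (10000/well) were treated 24 h at 37° C with a 10-point 3-fold dilution series (top 10 μM final, ≤0.25% DMSO). HiBiT luminescence was read after lytic LgBiT detection. Percent response used unmodified K562 and DMSO-treated knock-in controls, and IC50 came from a four-parameter fit at 50% of untreated.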

MYB mRNA = assay: RT-qPCR splicing assay, MYB mRNA canonical (CJ) and alternative (AJ) junction; type: cell-based, human; settings: Homo sapiens
Procedure, shortened: (§1)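 Both isoforms, CJ and AJ, read by qPCR from crude lysates of treated A673 or K562 cells; 24 h, 37 °C, maximum 10 uM. Normalization: housekeeper ΔCt, then DMSO ΔΔCt.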

HTT mRNA = assay: RT-qPCR splicing assay, HTT mRNA canonical (CJ) and alternative (AJ) junction; type: cell-based, human; settings: Homo sapiens
Procedure, shortened: as §1

K562 cells = assay: Cell Titer Glo 2.0 cell viability (toxicity) assay, K562; settings: 500 cells/well, 72 hours
SMN2 mRNA = assay: RT-qPCR splicing assay, SMN2 mRNA; type: cell-based, human; settings: Homo sapiens, canonical junction qPCR panel, Table 4; read-out: SMN2 IC50 (decrease in CJ mRNA levels)
Procedure, shortened: as §1

[1] = MYB alternative junction mRNA, RT-qPCR, read-out: MYB AJ (increase in AJ mRNA, AC50)
[2] = MYB canonical junction mRNA, RT-qPCR, read-out: MYB CJ (decrease in CJ mRNA levels, IC50)
[3] = canonical junction qPCR panel, Table 4, read-out: MYB IC50 (decrease in CJ mRNA levels)
[4] = HTT alternative junction mRNA, RT-qPCR, read-out: HTT AJ (increase in AJ mRNA, AC50)
[5] = HTT canonical junction mRNA, RT-qPCR, read-out: HTT CJ (decrease in CJ mRNA levels, IC50)
[6] = canonical junction qPCR panel, Table 4, read-out: HTT IC50 (decrease in CJ mRNA levels)
[7] = RT-qPCR, MYB alternative junction mRNA increase, read-out: MYB AJ (increase in alternative junction mRNA, AC50)
[8] = RT-qPCR, MYB canonical junction mRNA decrease, read-out: MYB CJ (decrease in canonical junction mRNA, IC50)
[9] = RT-qPCR, HTT alternative junction mRNA increase, read-out: HTT AJ (increase in alternative junction mRNA, AC50)
[10] = RT-qPCR, HTT canonical junction mRNA decrease, read-out: HTT CJ (decrease in canonical junction mRNA, IC50)

Structure (SMILES) | IC50 (Target C) [µM] | IC50 (MYB mRNA; [2]) [µM] | IC50 (MYB mRNA; [3]) [µM] | IC50 (HTT mRNA; [5]) [µM] | IC50 (HTT mRNA; [6]) [µM] | IC50 (SMN2 mRNA) [µM] | IC50 (MYB mRNA; [8]) [µM] | IC50 (HTT mRNA; [10]) [µM] | AC50 (MYB mRNA; [1]) [µM] | AC50 (HTT mRNA; [4]) [µM] | Effect of Exemplary Compounds on Cell Viability, K562 (K562 cells) | AC50 (MYB mRNA; [7]) [µM] | AC50 (HTT mRNA; [9]) [µM]
Cn1cc2cc(-c3cc4ccc(C5CCNCC5)nc4cn3)c(O)cc2n1 [Compound 104] | 1 to 10 | 1 to 10 | 1 to 10 | 1 to 10 | 1 to 10 | 0.1 to 1 | – | – | 1 to 10 | 1 to 10 | C (C represents 1000-9999 nM) | – | –
Cn1cc2cc(-c3ccc4nc(N5CC[C@H](NC6CCC6)C5)ccc4n3)c(O)cc2n1 [Compound 156] | < 0.1 | < 0.1 | < 0.1 | < 0.1 | < 0.1 | < 0.1 | – | – | < 0.1 | < 0.1 | B (B represents 100-1000 nM) | – | –
CC(C)N[C@H]1CCN(c2ccc3nc(-c4cc5cn(C)nc5cc4O)ccc3n2)C1 [Compound 171] | < 0.1 | < 0.1 | < 0.1 | < 0.1 | < 0.1 | < 0.1 | – | – | < 0.1 | < 0.1 | B (B represents 100-1000 nM) | – | –
Cc1cn2nc(-c3ccc4nc(N5CCC(NC(C)(C)C)C5)ccc4n3)cc(C)c2n1 (stereo not drawn) [Compound 186] | < 0.1 | 0.1 to 1 | 0.1 to 1 | < 0.1 | < 0.1 | < 0.1 | – | – | < 0.1 | < 0.1 | B (B represents 100-1000 nM) | – | –
Cn1cc2cc(-c3ccc4nc(N5CC[C@H](NCC6CC6)C5)ccc4n3)c(O)cc2n1 [Compound 194] | < 0.1 | < 0.1 | < 0.1 | < 0.1 | < 0.1 | < 0.1 | – | – | < 0.1 | < 0.1 | B (B represents 100-1000 nM) | – | –
CN(C)C1CCN(c2ccc3nc(-c4cc5cn(C)nc5c(F)c4O)ncc3c2)CC1 [Compound 757, 5-{6-[4-(dimethylamino)piperidin-1-yl]quinazolin-2-yl}-7-fluoro-2-methylindazol-6-ol] | 1 to 10 | – | < 0.1 | – | 1 to 10 | < 0.1 | < 0.1 | 1 to 10 | – | – | A (A represents <100 nM) | 0.1 to 1 | 1 to 10
C[C@@H]1CN(c2cc(F)c3nc(-c4cc(F)c5nn(C)cc5c4)ccc3c2)C[C@H](C)N1 [Compound 758, 6-[(3R,5S)-3,5-dimethylpiperazin-1-yl]-8-fluoro-2-(7-fluoro-2-methylindazol-5-yl)quinoline] | 0.1 to 1 | – | 0.1 to 1 | – | 0.1 to 1 | < 0.1 | 0.1 to 1 | 0.1 to 1 | – | – | B (B represents 100-1000 nM) | 0.1 to 1 | 1 to 10
C[C@@H]1CN(c2cc(F)c3nc(-c4cc5cn(C)nc5c(F)c4O)ccc3c2)C[C@H](C)N1 [Compound 763, 5-{6-[(3R,5S)-3,5-dimethylpiperazin-1-yl]-8-fluoroquinolin-2-yl}-7-fluoro-2-methylindazol-6-ol hydrochloride] | < 0.1 | – | < 0.1 | – | < 0.1 | < 0.1 | < 0.1 | < 0.1 | – | – | A (A represents <100 nM) | < 0.1 | 0.1 to 1

Further lines, with some results ahead:

IC50 (Target C) [µM] | IC50 (MYB mRNA; [2]) [µM] | IC50 (MYB mRNA; [3]) [µM] | IC50 (HTT mRNA; [5]) [µM] | IC50 (HTT mRNA; [6]) [µM] | IC50 (SMN2 mRNA) [µM] | IC50 (MYB mRNA; [8]) [µM] | IC50 (HTT mRNA; [10]) [µM] | Structure (SMILES) | AC50 (MYB mRNA; [1]) [µM] | AC50 (HTT mRNA; [4]) [µM] | Effect of Exemplary Compounds on Cell Viability, K562 (K562 cells) | AC50 (MYB mRNA; [7]) [µM] | AC50 (HTT mRNA; [9]) [µM]
1 to 10 | – | 0.1 to 1 | – | 1 to 10 | < 0.1 | 0.1 to 1 | 1 to 10 | C[C@@H]1CN(c2cc(F)c3nc(-c4cc5cn(C)nc5cc4O)ccc3c2)C[C@H](C)N1 [Compound 768, 5-{6-[(3R,5S)-3,5-dimethylpiperazin-1-yl]-8-fluoroquinolin-2-yl}-2-methylindazol-6-ol hydrochloride] | – | – | C (C represents 1000-9999 nM) | 0.1 to 1 | 1 to 10
0.1 to 1 | – | < 0.1 | – | 1 to 10 | < 0.1 | < 0.1 | 1 to 10 | Cc1cn2cc(-c3ncc4cc(N5C[C@@H](C)N[C@@H](C)C5)ccc4n3)cc(F)c2n1 [Compound 773, 6-[(3R,5S)-3,5-dimethylpiperazin-1-yl]-2-{8-fluoro-2-methylimidazo[1,2-a]pyridin-6-yl}quinazoline] | – | – | B (B represents 100-1000 nM) | < 0.1 | 1 to 10
0.1 to 1 | – | < 0.1 | – | 1 to 10 | < 0.1 | < 0.1 | 1 to 10 | Cc1cn2cc(-c3nc(C(=O)NC4CCC4)c4cc(N5C[C@@H](C)N[C@@H](C)C5)ccc4n3)cc(F)c2n1 [Compound 779, N-cyclobutyl-6-[(3R,5S)-3,5-dimethylpiperazin-1-yl]-2-{8-fluoro-2-methylimidazo[1,2-a]pyridin-6-yl}quinazoline-4-carboxamide] | – | – | A (A represents <100 nM) | < 0.1 | 1 to 10
0.1 to 1 | – | < 0.1 | – | 0.1 to 1 | < 0.1 | < 0.1 | 0.1 to 1 | Cc1cn2cc(-c3ncc4cc(N5C[C@H](C)N[C@@H](C)C5)ccc4n3)cc(F)c2n1 [Compound 803, 6-[(3S,5S)-3,5-dimethylpiperazin-1-yl]-2-{8-fluoro-2-methylimidazo[1,2-a]pyridin-6-yl}quinazoline] | – | – | A (A represents <100 nM) | < 0.1 | 0.1 to 1
